Data as given in US20160000796A1, “PHARMACEUTICAL COMPOSITION FOR USE IN PREVENTION OR TREATMENT OF CANCER” (priority 2013, published 2016).

Key:
HTLV-1 = conditions: Non Patent Literature 5; cited from earlier work
[1] = test system: Kit225 (non-HTLV-1-infected cell line); assay: Cellular proliferation (MTS assay), Kit225; assay type: cell-based; conditions: 100 μM
Procedure: Each nucleoside analogue reverse transcriptase inhibitor was added to the medium for cells at a final concentration of 100 μM. Cells were seeded on a 96-well plate at a concentration of 1×10^4 cells/100 μL/well and cultured for 4 hours (Day 0), 48 hours (Day 2) or 96 hours (Day 4). A medium added DMSO (solvent control) alone was used as a control. Cellular proliferation was examined by MTS assay. Specifically, after the cells were cultured for a predetermined time, a reagent for cellular proliferation test, Aqueous One Solution Cell Proliferation (trade name, manufactured by Promega), was added to the cells. Four hours later, absorbance at 490 nm was measured. The cellular proliferation was represented by a ratio relative to that of the control (solvent control) on Day 0 that was regarded as 1.
This example used non-HTLV-1-infected cell lines: Jurkat (cell line derived from human T-cell leukemia, ATCC No: TIB-152), Kit225 (cell line derived from chronic T-cell leukemia, established in the laboratory of the inventors, Blood. 1987 October; 70 (4): 1069-72.), H9 (cell line derived from cutaneous T-cell lymphoma, ATCC No: HTB-176) and SUDHL6 (cell line derived from diffuse B cell lymphoma).
The six types of nucleoside analogue reverse transcriptase inhibitors as used in Example 1 were used and cellular proliferation was examined in the same manner as in Example 1.

[2] = test system: DT40-derived mutants each lacking a DNA repair enzyme; assay: Cellular proliferation of DT40-derived mutants (CellTiter-Glo ATP method); assay type: cell-based, chicken; conditions: 25 μM, 48 hours
Description: This example used wild-type DT40, which is a chicken B cell-derived cell line, and DT40-devired mutants each lacking a DNA repair enzyme. Those cell lines are available from the laboratory of Radiation Genetics, Graduate School of Medicine and Faculty of Medicine Kyoto University (see, Literatures: (1) Mol Cell Biol. 2001 April; 21 (8): 2858-66. (2) PLoS Genet. 2011 July; 7 (7): e1002148. (3) Mol Cell Biol. 2008 October; 28 (19): 6113-22. (4) J Biol Chem. 2012 Apr. 13; 287 (16): 12848-57.).
Abacavir was added to the medium of each cell line at a final concentration of 25 μM. The cells were seeded on a 96-well plate at a concentration of 1×10^4 cells/100 μL/well and cultured for 48 hours. After the culture, cellular proliferation was determined by CellTiter-Glo Luminescent Cell Viability Assay (trade name, manufactured by Promega) in accordance with the ATP method.
Specifically, the value on the vertical axis is −1 when the proliferation rate compared to the wild-type is 50%, and −2 when the proliferation rate compared to the wild-type is 25%.

[3] = test system: NCI_H522 (lung cancer cell line lacking TDP1 expression); assay: Cellular proliferation (MTS) of lung cancer cell line NCI_H522; assay type: cell-based; conditions: 100, 200 or 300 μM, 72 hours
Procedure: Lung cancer cell lines lacking TDP1 expression, HOP—62 and NCI_H522, were used. NCI_H1299, a lung cancer cell line expressing TDP1, was used as a control. HOP—62 and NCI_H522 were provided by Dr. Pommier (DNA Repair. 2014 January; 13: 1-9).
Abacavir was added to each of the cell lines at a concentration of 0 μM (DMSO was added instead of abacavir), 100 μM, 200 μM or 300 μM. The cells were seeded on a 96-well plate at a concentration of 3×10^3 cells/100 μL/well and cultured for 4 hours or 72 hours. After the culture of a predetermined time, MTS assay was performed using a reagent for cellular proliferation, test, Aqueous One Solution Cell Proliferation (trade name, manufactured by Promega), in the same manner as in Example 1. The cellular proliferation was represented by a ratio relative to that of the control (solvent control) on Day 0 that was regarded as 100%.

[4] = test system: non-ATL cell line, Jurkat; assay: PARP inhibitor combination, cellular proliferation (MTS), Jurkat; assay type: cell-based, human; conditions: abacavir 10, 50 or 100 μM, 48 hours
Procedure: To an ATL cell line, ED40515 (−), or a non-ATL cell line, Jurkat, abacavir was added at a concentration of 0 μM (DMSO, was added instead of abacavir), 10 μM, 50 μM or 100 μM, and further a PARP inhibitor, olaparib, was added at a concentration of 0 μM (DMSO was added instead of olaparib), 1 μM, 10 μM, 100 μM or 1000 μM. The cells were cultured for 48 hours. MTS assay was performed using a reagent for cellular proliferation test, Aqueous One Solution Cell Proliferation (trade name, manufactured by Promega), in the same manner as in Example 1. The cellular proliferation was represented by a ratio relative to that of the control (solvent control) on Day 0 that was regarded as 1.

Nc1nc(NC2CC2)c2ncn([C@H]3C=C[C@@H](CO)C3)c2n1 [abacavir, (−)-(1S,4R)-4-[2-amino-6-(cyclopropylamino)-9H-purin-9-yl]-2-cyclopentene-1-methanol]
anti-HTLV-1 effect (HTLV-1): anti-HTLV-1 effect
cellular proliferation [1]: did not exhibit a suppressive effect
cellular proliferation relative to wild-type DT40 (Log2 Gene/WT) ([2]; DT40 mutant lacking BRCA1): showed a suppressive effect
cellular proliferation relative to wild-type DT40 (Log2 Gene/WT) ([2]; DT40 mutant lacking GEN1): showed a suppressive effect
cellular proliferation relative to wild-type DT40 (Log2 Gene/WT) ([2]; DT40 mutant lacking PCNA): showed a suppressive effect
cellular proliferation relative to wild-type DT40 (Log2 Gene/WT) ([2]; DT40 mutant lacking TDP1): showed a suppressive effect
cellular proliferation relative to wild-type DT40 (Log2 Gene/WT) ([2]; DT40 mutant lacking XRCC2): showed a suppressive effect
cellular proliferation [3]: suppressed cellular proliferation of HOP—62 and NCI_H522 lacking TDP1 expression in a concentration dependent manner
cellular proliferation [4]: did not suppress cellular proliferation
